Data as given in patent publication US8097730B2, “Bicyclic heterocycles useful as selective androgen receptor modulators” (Janssen Pharmaceutica N.V., priority 2006, dated 2012).
Read-outs that look alike come from different tables or passages of the source.

Columns and labels:
[1] = system: Immature castrated male Sprague Dawley rats; ventral prostate and levator ani; test: Ventral Prostate and Levator Ani Weight In Vivo Assay (agonist activity, percent stimulation of tissue weight); set-up: species or system rat; key to % Prostate Stimulation: level 1 agonist active if it produced greater than or equal to 30% stimulation of levator ani or ventral prostate at 30 mg/kg; level 2 agonist active if it produced greater than or equal to 5% but less than 30% stimulation of levator ani or ventral prostate at 30 mg/kg; listed herein as “inactive” as they did not meet the specified criteria defined above; details: once daily for five days, oral, vehicle = 0%, testosterone alone = 100%, classes defined at 30 mg/kg; for change in vivo at 30 mg/kg: Rattus norvegicus, 120 h
Experimental: Ventral Prostate and Levator Ani Weight In Vivo Assay
(§1) Immature (approximately 50 g) castrated male Sprague Dawley rats (Charles River) were treated once daily for five days with test compound (usually given orally at 40 mg/kg in a volume of 0.3 mL, in 30% cyclodextrin or 0.5% methylcellulose vehicle) and with testosterone propionate (given subcutaneously by injection at the nape of the neck at 2 mg/kg, in a volume of 0.1 mL in sesame oil). On the sixth day, the rats were euthanized by asphyxiation in carbon dioxide. Ventral prostates and levator ani muscles were removed and their wet weights determined.
Test compound activity was determined as the percent stimulation of tissue weight, with the vehicle-treated control group set to zero percent and the testosterone alone-treated control group set to 100%. A compound was designated as level 1 agonist active if it produced greater than or equal to 30% stimulation of levator ani or ventral prostate at 30 mg/kg. A compound was designated as level 2 agonist active if it produced greater than or equal to 5% but less than 30% stimulation of levator ani or ventral prostate at 30 mg/kg.
Representative compounds of the present invention were tested according to the procedure described, with results as listed in Table 3 below.

[2] = system: Immature castrated male Sprague Dawley rats; ventral prostate and seminal vesicle; test: Ventral Prostate and Seminal Vesicle Weight In Vivo Assay (antagonist activity, percent inhibition of testosterone-enhanced tissue weights); set-up: species or system rat; key to Inhibition of prostate (non-weight prostate weight, mg): level 1 agonist active if it produced greater than or equal to 30% stimulation of levator ani or ventral prostate at 30 mg/kg; level 2 agonist active if it produced greater than or equal to 5% but less than 30% stimulation of levator ani or ventral prostate at 30 mg/kg; listed herein as “inactive” as they did not meet the specified criteria defined above; details: compound oral once daily for five days with testosterone propionate 2 mg/kg s.c., classes defined at 30 mg/kg; for inhibition in vivo at 30 mg/kg: Rattus norvegicus, 120 h
Experimental: Ventral Prostate and Seminal Vesicle Weight In Vivo Assay
as §1, with “([…],” for “(usually given orally at 40 mg/kg in a volume of 0.3 mL,”, “prosatates” for “prostates”, “seminal vesicles” for “levator ani muscles”, “determined. Test compound activity was determined as the percent inhibition of testosterone-enhanced tissue weights, with a vehicle-treated control group set to zero percent and a testosterone alone-treated control group set to 100%.” for “determined.”
Representative compounds of the present invention were tested according to the procedure described, with results as listed in Table 4 below.

[3] = levator ani wet weight, read-out: % levator ani Stimulation
[4] = ventral prostate wet weight, read-out: % Prostate Stimulation
[5] = seminal vesicle wet weight, read-out: Inhibition of seminal vesicle (non-weight seminal vesicle weight, mg)
[6] = ventral prostate wet weight, read-out: Inhibition of prostate (non-weight prostate weight, mg)

Structure (SMILES) | change in vivo at 30 mg/kg [1, 3] | change in vivo at 30 mg/kg [1, 4] | inhibition in vivo at 30 mg/kg [2, 5] | inhibition in vivo at 30 mg/kg [2, 6] | % levator ani Stimulation ([1]; levator ani wet weight) | % Prostate Stimulation ([1]; ventral prostate wet weight) | Inhibition of seminal vesicle (non-weight seminal vesicle weight, mg) ([2]; seminal vesicle wet weight) | Inhibition of prostate (non-weight prostate weight, mg) ([2]; ventral prostate wet weight)
CC12CC(C(F)(F)F)=NN1C(=O)N(c1ccc(C#N)c(C(F)(F)F)c1)C2=O (centres unmarked) [Compound 1, 4-(3a-Methyl-4,6-dioxo-2-trifluoromethyl-3a,4-dihydro-3H-imidazo[1,5-b]pyrazol-5-yl)-2-trifluoromethyl-benzonitrile] | ≥ 30% | 5 to 30% | 5 to 30% | 5 to 30% |  |  |  | 
C[C@]12CC(C(F)(F)F)=NN1C(=O)N(c1ccc(C#N)c(C(F)(F)F)c1)C2=O [Compound 2, (R)-4-(3a-Methyl-4,6-dioxo-2-trifluoromethyl-3a,4-dihydro-3H-imidazo[1,5-b]pyrazol-5-yl)-2-trifluoromethyl-benzonitrile] | ≥ 30% | 5 to 30% | 5 to 30% | 5 to 30% |  |  |  | 
C[C@@]12CC(C(F)(F)F)=NN1C(=O)N(c1ccc(C#N)c(C(F)(F)F)c1)C2=O [Compound 3, (S)-4-(3a-Methyl-4,6-dioxo-2-trifluoromethyl-3a,4-dihydro-3H-imidazo[1,5-b]pyrazol-5-yl)-2-trifluoromethyl-benzonitrile] | ≥ 30% | ≥ 30% | 5 to 30% | 5 to 30% |  |  |  | 
CC12CC=NN1C(=O)N(c1ccc(C#N)c(C(F)(F)F)c1)C2=O (centres unmarked) [Compound 4, 4-(3a-Methyl-4,6-dioxo-3a,4-dihydro-3H-imidazo[1,5-b]pyrazol-5-yl)-2-trifluoromethyl-benzonitrile] |  |  | 5 to 30% | 5 to 30% | Inactive | inactive |  | 
CCOC(=O)C1=NN2C(=O)N(c3ccc(C#N)c(C(F)(F)F)c3)C(=O)C2(C)C1 (centres unmarked) [Compound 5, 5-(4-Cyano-3-trifluoromethyl-phenyl)-3a-methyl-4,6-dioxo-3a,4,5,6-tetrahydro-3H-imidazo[1,5-b]pyrazole-2-carboxylic acid ethyl ester] |  |  | 5 to 30% | 5 to 30% | Inactive | inactive |  | 
CCOC(=O)C1=NN2C(=O)N(c3ccc([N+](=O)[O-])c(C(F)(F)F)c3)C(=O)C2(C)C1 (centres unmarked) [Compound 6, 3a-Methyl-5-(4-nitro-3-trifluoromethyl-phenyl)-4,6-dioxo-3a,4,5,6-tetrahydro-3H-imidazo[1,5-b]pyrazole-2-carboxylic acid ethyl ester] |  |  | 5 to 30% | 5 to 30% | Inactive | inactive |  | 
CC(=O)Nc1ccc(C2=NN3C(=O)N(c4ccc(C#N)c(C(F)(F)F)c4)C(=O)C3(C)C2)cc1 (centres unmarked) [Compound 7, N-{4-[5-(4-Cyano-3-trifluoromethyl-phenyl)-3a-methyl-4,6-dioxo-3a,4,5,6-tetrahydro-3H-imidazo[1,5-b]pyrazol-2-yl]-phenyl}-acetamide] | 5 to 30% | 5 to 30% |  | 5 to 30% |  |  | Inactive | 
CCOC(=O)C1=NN2C(=O)C(=O)N(c3ccc(C#N)c(C(F)(F)F)c3)C(=O)C2(C)C1 (centres unmarked) [Compound 8, 5-(4-Cyano-3-trifluoromethyl-phenyl)-3a-methyl-4,6,7-trioxo-3,3a,4,5,6,7-hexahydro-pyrazolo[1,5-a]pyrazine-2-carboxylic acid ethyl ester] | 5 to 30% |  | 5 to 30% |  |  | inactive |  | inactive
C[C@@]12CC(C(F)(F)F)=NN1[S+]([O-])N(c1ccc(C#N)c(C(F)(F)F)c1)C2=O (stereo partly drawn) [Compound 10, (S)-4-(3a-Methyl-1,3-dioxo-5-trifluoromethyl-3a,4-dihydro-3H-1I4-thia-2,6,6a-triaza-pentalen-2-yl)-2-trifluoromethyl-benzonitrile] | ≥ 30% | ≥ 30% | 5 to 30% | ≥ 30% |  |  |  | 
C[C@@]12CC(C(F)(F)F)=NN1S(=O)(=O)N(c1ccc(C#N)c(C(F)(F)F)c1)C2=O [Compound 11, 4-(3a-Methyl-1,1,3-trioxo-5-trifluoromethyl-3a,4-dihydro-3H-1I6-thia-2,6,6a-triaza-pentalen-2-yl)-2-trifluoromethyl-benzonitrile] | ≥ 30% | ≥ 30% | 5 to 30% | 5 to 30% |  |  |  | 
CC12COC(=O)N1C(=O)N(c1ccc(Cl)c(C(F)(F)F)c1)C2=O (centres unmarked) [Compound 12, 6-(4-Chloro-3-trifluoromethyl-phenyl)-7a-methyl-dihydro-imidazo[1,5-c]oxazole-3,5,7-trione] |  |  | 5 to 30% | 5 to 30% | Inactive | inactive |  | 
CC12CNC(=O)N1C(=O)N(c1ccc(Cl)c(C(F)(F)F)c1)C2=O (centres unmarked) [Compound 13, 2-(4-Chloro-3-trifluoromethyl-phenyl)-7a-methyl-dihydro-imidazo[1,5-c]imidazole-1,3,5-trione] |  |  | ≥ 30% | ≥ 30% | Inactive | inactive |  | 
CC12CNC(=O)N1C(=O)N(c1ccc(C#N)c(C(F)(F)F)c1)C2=O (centres unmarked) [Compound 15, 4-(7a-Methyl-1,3,5-trioxo-tetrahydro-imidazo[1,5-c]imidazol-2-yl)-2-trifluoromethyl-benzonitrile] |  |  | ≥ 30% | ≥ 30% | Inactive | inactive |  | 
CN1CC2(C)C(=O)N(c3ccc(Cl)c(C(F)(F)F)c3)C(=O)N2C1=O (centres unmarked) [Compound 16, 2-(4-Chloro-3-trifluoromethyl-phenyl)-6,7a-dimethyl-dihydro-imidazo[1,5-c]imidazole-1,3,5-trione] |  |  | ≥ 30% | ≥ 30% | Inactive | inactive |  | 
